Laboratory results published in patent US20220213092A1, “BICYCLIC PYRAZOLE BRUTON'S TYROSINE KINASE INHIBITORS” (AbbVie Inc., priority 2020, published 2022).

What follows are compounds tested against T1, BTK (Homo sapiens, UniProt Q06187) (assay: BTK kinase electrophoretic mobility shift assay (MSA)). Conditions: not given.
T1 construct: purchased Nanosyn, Santa Clara, Calif; host or cells: 293HEK
T1 sequence (Q06187 whole entry): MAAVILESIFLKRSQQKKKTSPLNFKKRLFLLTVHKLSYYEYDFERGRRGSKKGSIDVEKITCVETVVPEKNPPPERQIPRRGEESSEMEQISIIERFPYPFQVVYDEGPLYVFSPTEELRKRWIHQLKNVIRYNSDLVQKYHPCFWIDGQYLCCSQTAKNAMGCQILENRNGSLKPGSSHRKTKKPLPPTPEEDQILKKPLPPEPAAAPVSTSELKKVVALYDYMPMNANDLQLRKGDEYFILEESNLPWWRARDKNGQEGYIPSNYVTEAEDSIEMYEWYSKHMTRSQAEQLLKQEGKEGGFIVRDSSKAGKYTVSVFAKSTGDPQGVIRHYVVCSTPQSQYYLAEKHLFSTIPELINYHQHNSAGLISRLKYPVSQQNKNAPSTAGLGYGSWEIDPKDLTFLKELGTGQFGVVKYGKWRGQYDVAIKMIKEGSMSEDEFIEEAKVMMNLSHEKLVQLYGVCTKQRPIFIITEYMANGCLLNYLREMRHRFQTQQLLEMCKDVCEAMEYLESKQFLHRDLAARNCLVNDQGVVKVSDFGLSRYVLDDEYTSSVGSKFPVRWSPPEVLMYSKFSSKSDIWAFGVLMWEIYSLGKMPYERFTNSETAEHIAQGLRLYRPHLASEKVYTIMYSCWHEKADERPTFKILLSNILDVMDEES
Type: biochemical
Method: Kinase activity, unless otherwise indicated, was measured in vitro using an electrophoretic mobility shift assay (MSA). The phosphorylation of a peptide substrate by BTK and other kinases was measured. The kinase reactions were assembled in a total volume of 25 μL per well in 384 well plates. The following was added to each well: compound buffer (or control); enzyme buffer; and substrate buffer, as further described below.
The terminated reactions were analyzed using a 12 channel LABCHIP® 3000 microfluidic detection instrument (available from Caliper Life Sciences, Waltham, Mass.). […] Change in the relative fluorescence intensity of the substrate and product peaks was the parameter measured, reflecting enzyme activity. In the presence of an inhibitor, the ratio between product and substrate was altered. The signal of the product decreased, while the signal of the substrate increased. Capillary electrophoregrams (RDA acquisition files) were analyzed using HTS Well Analyzer software (available from Caliper Life Sciences, Waltham, Mass.).
Activity in each sample was determined as the product to sum ratio (PSR): P/(S+P), where P was the peak height of the product peptide and S was the peak height of the substrate peptide. For each compound, enzyme activity was measured at various concentrations (12 concentrations of compound spaced by 3× dilution intervals). Negative control samples (00 inhibition in the absence of inhibitor) and positive control samples (10000 inhibition, in the presence of 20 mM EDTA) were assembled in replicates of four and were used to calculate 00 inhibition values for each inhibitor at each concentration. Percent inhibition (Pinh) was determined using following equation: Pinh=(PSR0%−PSRinh)/(PSR0%−PSR100%)*100, where PSRinh was the product sum ratio in the presence of inhibitor, PSR0% was the average product sum ratio in the absence of inhibitor and PSR100% was the average product sum ratio in 100%−inhibition control samples.
The IC50 values of inhibitors were determined by 4 parameter sigmoidal dose response model fitting of the inhibition curves (Pinh versus inhibitor concentration) using XLfit® 4 software (available from IDBS, Boston, Mass.).
NC(=O)c1c2c(nn1-c1ccc(Oc3ccccc3)cc1)C(N1CCN(C(=O)CF)CC1)CCN2 (centres unmarked) [Example 49, 7-[4-(fluoroacetyl)piperazin-1-yl]-2-(4-phenoxyphenyl)-4,5,6,7-tetrahydro-2H-pyrazolo[4,3-b]pyridine-3-carboxamide] showed an IC50 of 398 nM.

Same assay, conditions: 50 μM ATP, 0.5 nM BTK enzyme (Nanosyn-293HEK, WT), 3 hours at 25° C.; all examples except 50, 51, 62 and 63; read-out: BTK IC50
For C=CC(=O)N1CCC(C2CCNc3c2nn(-c2ccc(Oc4ccccc4)cc2)c3C(N)=O)CC1 (racemic) [Example 1, Rac-2-(4-phenoxyphenyl)-7-[1-(prop-2-enoyl)piperidin-4-yl]-4,5,6,7-tetrahydro-2H-pyrazolo[4,3-b]pyridine-3-carboxamide], the IC50 was 0.426 nM.
For C=CC(=O)N1CCC(C2CCNc3c2nn(-c2ccc(Oc4ccccc4)cc2F)c3C(N)=O)CC1 (centres unmarked) [Example 37, 2-(2-fluoro-4-phenoxyphenyl)-7-[1-(prop-2-enoyl)piperidin-4-yl]-4,5,6,7-tetrahydro-2H-pyrazolo[4,3-b]pyridine-3-carboxamide], the IC50 was 2.48 nM.
C=CC(=O)N1CCN(C2CCNc3c2nn(-c2ccc(Oc4ccccc4F)cc2)c3C(N)=O)CC1 (centres unmarked) [Example 38, 2-[4-(2-fluorophenoxy)phenyl]-7-[4-(prop-2-enoyl)piperazin-1-yl]-4,5,6,7-tetrahydro-2H-pyrazolo[4,3-b]pyridine-3-carboxamide] showed an IC50 of 3.58 nM.
C=CC(=O)N1CC2CC(C1)N2C1CCNc2c1nn(-c1ccc(Oc3ccccc3)cc1)c2C(N)=O (centres unmarked) [Example 41, 2-(4-phenoxyphenyl)-7-[3-(prop-2-enoyl)-3,6-diazabicyclo[3.1.1]heptan-6-yl]-4,5,6,7-tetrahydro-2H-pyrazolo[4,3-b]pyridine-3-carboxamide] was tested, and the IC50 was 15.8 nM.
With C=CC(=O)N1CCN(C2CCNc3c2nn(-c2ccc(Oc4ccccc4)cc2)c3C(N)=O)C[C@H]1C (stereo partly drawn) [Example 42, 7-[(3R)-3-methyl-4-(prop-2-enoyl)piperazin-1-yl]-2-(4-phenoxyphenyl)-4,5,6,7-tetrahydro-2H-pyrazolo[4,3-b]pyridine-3-carboxamide] the IC50 was 11.8 nM.
With CN(C)C/C=C/C(=O)N1CCN([C@@H]2CCNc3c2nn(-c2ccc(Oc4ccccc4)cc2)c3C(N)=O)CC1 [Example 46, (7R)-7-{4-[(2E)-4-(dimethylamino)but-2-enoyl]piperazin-1-yl}-2-(4-phenoxyphenyl)-4,5,6,7-tetrahydro-2H-pyrazolo[4,3-b]pyridine-3-carboxamide] the IC50 was 76.7 nM.
C/C=C/C(=O)N1CCN([C@@H]2CCNc3c2nn(-c2ccc(Oc4ccccc4)cc2)c3C(N)=O)CC1 [Example 47, (7R)-7-{4-[(2E)-but-2-enoyl]piperazin-1-yl}-2-(4-phenoxyphenyl)-4,5,6,7-tetrahydro-2H-pyrazolo[4,3-b]pyridine-3-carboxamide] gave an IC50 of 819 nM.
In the case of NC(=O)/C=C/C(=O)N1CCN([C@@H]2CCNc3c2nn(-c2ccc(Oc4ccccc4)cc2)c3C(N)=O)CC1 [Example 48, (7R)-7-{4-[(2E)-4-amino-4-oxobut-2-enoyl]piperazin-1-yl}-2-(4-phenoxyphenyl)-4,5,6,7-tetrahydro-2H-pyrazolo[4,3-b]pyridine-3-carboxamide], the IC50 is reported as 51.1 nM.
C=CC(=O)N1CCN(C2CCNc3c2nn(-c2ccc(Oc4ccccc4)cc2Cl)c3C(N)=O)CC1 (centres unmarked) [Example 52, 2-(2-chloro-4-phenoxyphenyl)-7-[4-(prop-2-enoyl)piperazin-1-yl]-4,5,6,7-tetrahydro-2H-pyrazolo[4,3-b]pyridine-3-carboxamide] was tested, and the IC50 was 33.3 nM.
Compound C=CC(=O)N1CCN(C2CCNc3c2nn(-c2ccc(Oc4cc(F)cc(F)c4)cc2)c3C(N)=O)CC1 (centres unmarked) [Example 55, 2-[4-(3,5-difluorophenoxy)phenyl]-7-[4-(prop-2-enoyl)piperazin-1-yl]-4,5,6,7-tetrahydro-2H-pyrazolo[4,3-b]pyridine-3-carboxamide] has an IC50 of 7.63 nM.
C=CC(=O)N1CCN(C2CCNc3c2nn(-c2ccc(Oc4ccc(F)cc4)cc2)c3C(N)=O)CC1 (centres unmarked) [Example 56, 2-[4-(4-fluorophenoxy)phenyl]-7-[4-(prop-2-enoyl)piperazin-1-yl]-4,5,6,7-tetrahydro-2H-pyrazolo[4,3-b]pyridine-3-carboxamide] was tested, and the IC50 was 14.8 nM.
For C=CC(=O)N1CCN([C@H]2CCNc3c2nn(-c2ccc(Oc4ccccc4C(F)(F)F)cc2)c3C(N)=O)CC1 [Example 61, (7S)-7-[4-(prop-2-enoyl)piperazin-1-yl]-2-{4-[2-(trifluoromethyl)phenoxy]phenyl}-4,5,6,7-tetrahydro-2H-pyrazolo[4,3-b]pyridine-3-carboxamide], the IC50 was 27.2 nM.
For C=CC(=O)N1CCN([C@H]2CCNc3c2nn(-c2ccc(Oc4ccccc4C)cc2)c3C(N)=O)CC1 [Example 94, (7S)-2-[4-(2-methylphenoxy)phenyl]-7-[4-(prop-2-enoyl)piperazin-1-yl]-4,5,6,7-tetrahydro-2H-pyrazolo[4,3-b]pyridine-3-carboxamide], the IC50 was 23.5 nM.
Work on C=CC(=O)N1CCN([C@H]2CCNc3c2nn(-c2ccc(Oc4cccc(C)c4)cc2)c3C(N)=O)CC1 [Example 95, (7S)-2-[4-(3-methylphenoxy)phenyl]-7-[4-(prop-2-enoyl)piperazin-1-yl]-4,5,6,7-tetrahydro-2H-pyrazolo[4,3-b]pyridine-3-carboxamide] yielded an IC50 of 14.1 nM.
Compound C=CC(=O)N1CCN([C@H]2CCNc3c2nn(-c2ccc(Oc4ccc(C)cc4)cc2)c3C(N)=O)CC1 [Example 96, (7S)-2-[4-(4-methylphenoxy)phenyl]-7-[4-(prop-2-enoyl)piperazin-1-yl]-4,5,6,7-tetrahydro-2H-pyrazolo[4,3-b]pyridine-3-carboxamide] has an IC50 of 59.2 nM.
C=CC(=O)N1CCN([C@H]2CCNc3c2nn(-c2ccc(Oc4ccccc4OC)cc2)c3C(N)=O)CC1 [Example 97, (7S)-2-[4-(2-methoxyphenoxy)phenyl]-7-[4-(prop-2-enoyl)piperazin-1-yl]-4,5,6,7-tetrahydro-2H-pyrazolo[4,3-b]pyridine-3-carboxamide] showed an IC50 of 120 nM.
C=CC(=O)N1CCN([C@H]2CCNc3c2nn(-c2ccc(Oc4cccc(OC)c4)cc2)c3C(N)=O)CC1 [Example 98, (7S)-2-[4-(3-methoxyphenoxy)phenyl]-7-[4-(prop-2-enoyl)piperazin-1-yl]-4,5,6,7-tetrahydro-2H-pyrazolo[4,3-b]pyridine-3-carboxamide] gave an IC50 of 14.4 nM.
In the case of C=CC(=O)N1CCN([C@H]2CCNc3c2nn(-c2ccc(Oc4ccc(OC)cc4)cc2)c3C(N)=O)CC1 [Example 99, (7S)-2-[4-(4-methoxyphenoxy)phenyl]-7-[4-(prop-2-enoyl)piperazin-1-yl]-4,5,6,7-tetrahydro-2H-pyrazolo[4,3-b]pyridine-3-carboxamide], the IC50 is reported as 136 nM.
With C=CC(=O)N1CCN([C@H]2CCNc3c2nn(-c2ccc(Oc4ccccc4OC(F)(F)F)cc2)c3C(N)=O)CC1 [Example 100, (7S)-7-[4-(prop-2-enoyl)piperazin-1-yl]-2-{4-[2-(trifluoromethoxy)phenoxy]phenyl}-4,5,6,7-tetrahydro-2H-pyrazolo[4,3-b]pyridine-3-carboxamide] the IC50 was 46.3 nM.
Compound C=CC(=O)N1CCN([C@H]2CCNc3c2nn(-c2ccc(Oc4cccc(OC(F)(F)F)c4)cc2)c3C(N)=O)CC1 [Example 101, (7S)-7-[4-(prop-2-enoyl)piperazin-1-yl]-2-{4-[3-(trifluoromethoxy)phenoxy]phenyl}-4,5,6,7-tetrahydro-2H-pyrazolo[4,3-b]pyridine-3-carboxamide] has an IC50 of 64.1 nM.
In the case of C=CC(=O)N1CCN([C@H]2CCNc3c2nn(-c2ccc(Oc4ccc(OC(F)(F)F)cc4)cc2)c3C(N)=O)CC1 [Example 102, (7S)-7-[4-(prop-2-enoyl)piperazin-1-yl]-2-{4-[4-(trifluoromethoxy)phenoxy]phenyl}-4,5,6,7-tetrahydro-2H-pyrazolo[4,3-b]pyridine-3-carboxamide], the IC50 is reported as greater than 1000 nM.

The compounds below were run against T2, Phosphorylation of Y223 of BTK (Homo sapiens, UniProt Q06187) (assay: Whole blood compound screening, phosphorylation of Y223 site of BTK (MSD assay)). Conditions: healthy human whole blood, 2 hours at 37° C., 3 separate donors; read-out: WB BTK-pY223 EC50.
T2 construct: host or cells: healthy human whole blood, 3 donors
T2 sequence (Q06187 whole entry): as above
Type: cell-based
Method: Healthy human whole blood (WB) was collected from […]™ Technologies or […]® in sodium heparinized tubes. Whole blood was stored at ambient temperature to avoid coagulation. Each compound was tested in 3 separate donors. Compound stock solutions (10 mM) were used to generate dose titration (8 concentrations, starting concentration 10 μM, 1:4 dilution) in appropriate volume of dimethyl sulfoxide (0.2%). Whole blood was incubated with compounds in 96-well plates for 2 hours in tissue culture incubators at 37° C. under a 5% CO2 atmosphere. The whole blood was lysed in equal volume of lysis buffer (Cell Signaling Technology®, Danvers, Mass.) containing complete protease inhibitor tablet, PhosSTOP™ tablet, sodium orthovanadate and sodium fluoride and phenylmethanesulfonyl fluoride solution. The lysed whole blood was then frozen at −80° C. for overnight.
Phosphorylation of Y223 of BTK was measured using an MSD assay (Meso Scale Diagnostics, LLC, Rockville, Md.). The thawed lysed whole blood was incubated with the capturing antibody rabbit anti-human BTK (D3H5) (Cell Signaling Technology, Danvers, Mass.) at 4° C. overnight. After washing out the unbound samples, the detection antibody biotinylated rabbit anti-pY223-BTK(D9T6H) (Cell Signaling Technology®, Danvers, Mass.) was added to the plates. After washing out the unbound antibodies, SULFO-TAG Streptavidin (Meso Scale Diagnostics, LLC, Rockville, Md.) was used for detection on Meso Sector S600 (Meso Scale Diagnostics, LLC, Rockville, Md.).
The EC50 values were determined using software from Dotmatics. The activity of exemplary compounds is illustrated below.
C=CC(=O)N1CCC(C2CCNc3c2nn(-c2ccc(Oc4ccccc4)cc2)c3C(N)=O)CC1 (racemic) [Example 1, Rac-2-(4-phenoxyphenyl)-7-[1-(prop-2-enoyl)piperidin-4-yl]-4,5,6,7-tetrahydro-2H-pyrazolo[4,3-b]pyridine-3-carboxamide] showed an EC50 of 42.2 nM.
